Results as given in paper PMC2970562, “High-Affinity Inhibitors of Human NAD^+-Dependent 15-Hydroxyprostaglandin Dehydrogenase: Mechanisms of Inhibition and Structure-Activity Relationships” (PLoS ONE, 2010).
pIC50: −log10 of the molar value.

Legend:
[1] = biological target: T1, human 15-PGDH (Homo sapiens, UniProt P15428); assay: qHTS and 24-point re-test: fluorescence assay of NAD+ reduction to NADH on PGE2 oxidation (PubChem AID 894); format: biochemical; conditions: potency in 24-point titrations on re-test; 20 nM 15-PGDH, 1 mM NAD+, 30 µM PGE2, pH 8.0; read-out: qHTS IC50
T1 construct: comprising residues 3–256 of the human HPGD gene (GenBank identifier: 1203982); His6 (GHHHHHH, behind the TEV site) (C, cleaved yes); made in house; host or cells: E. coli BL21(DE3)-R3
T1 sequence (P15428 3-256): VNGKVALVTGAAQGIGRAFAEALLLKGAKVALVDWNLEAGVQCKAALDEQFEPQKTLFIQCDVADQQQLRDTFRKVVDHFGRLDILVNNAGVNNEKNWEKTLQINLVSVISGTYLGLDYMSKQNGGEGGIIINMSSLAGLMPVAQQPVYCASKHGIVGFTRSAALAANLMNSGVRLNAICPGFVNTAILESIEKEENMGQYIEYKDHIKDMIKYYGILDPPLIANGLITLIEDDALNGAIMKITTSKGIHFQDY
Experimental: The assay was miniaturized to a 4-µL volume in 1536-well format: enzyme (3 µL) was dispensed first, followed by a pintool transfer of library compounds dissolved in DMSO. After equilibration, a substrate dispense (1 µL) initiated the enzymatic reaction (see Materials and Methods, for detailed protocol description). […] Hits associated with low-efficacy (<40% maximum inhibition), incomplete curves, as well as those displaying only a single-point inhibition at the top concentration tested were eliminated from further consideration. Similarly, the collection of real-time kinetic data allowed the autofluorescence of each compound to be evaluated by comparing the initial fluorescence read at top concentration with the mean value of uninhibited assay controls: compounds whose top-concentration initial well fluorescence exceeded six standard deviations over the mean were flagged as potential autofluorescent artifacts, [28] (see example in supplementary information Figure S1E). The complete screening and followup results are available in PubChem (PubChem Assay ID 894).
The enzymatic reaction was performed in 50 mM Tris-HCl pH 8.0, containing 0.01% Tween 20. […] The high-throughput screen was performed on a fully integrated robotic system (Kalypsys Inc, San Diego, CA) as described elsewhere. Library compounds, arrayed as seven-point inter-plate concentration series, were screened from the lowest (3.5 nM) to the highest (57.5 µM) concentration, with plates containing DMSO only, serving to note any systematic drifts in the signal, interspersed evenly throughout the screen (approximately every 50 plates). Briefly, 3 µL of reagents were dispensed into 1536-well Greiner black solid-bottom assay plates using integrated nanoliter solenoid-technology dispensers. Compounds and controls (23 nL) were transferred via Kalypsys pintool equipped with 1,536-pin array (10-nL slotted pins; V&P Scientific, Palo Alto, CA). After a 15-minute incubation (to allow for interaction between compound and enzyme), a 1-µL substrate addition step initiated the reaction. Kinetic data were collected on a ViewLux High-throughput CCD imager (Perkin-Elmer) equipped with standard UV fluorescence optics (exc. 340 nm, em. 450 nm).
Starting fluorescence intensity and the change in fluorescence over the two-minute initial rate period were recorded for every well. Screening data were normalized against no-enzyme (64 wells, columns 3 and 4) and no-compound (32 wells located in column 1) controls, and concentration-response relationships were derived as described previously. A four-parameter Hill equation [47] was fitted to the concentration-response data using publicly available algorithms (http://www.ncgc.nih.gov/pub/openhts/curvefit/).

[2] = biological target: T1, human 15-PGDH; assay: Differential scanning fluorimetry (DSF), thermal stabilization; format: binding; conditions: 1 µM protein, compound 50 or 250 µM, N/A = no unfolding transition observed in DSF; for ∆Tm [°C] NAD+: with 200 µM NAD+; for ∆Tm [°C] NADH: with 200 µM NADH; for ∆Tm [°C] apo: without cofactor
Experimental: A correlation between the ΔTm and the inhibitory potency has been shown in a number of protein-ligand systems, particularly for kinases [32]–[34].
Studies to assess the thermal stability of human 15-PGDH in presence of compounds were performed as described previously, with variations. Briefly, the protein was diluted to a final assay concentration of 1 µM in 100 mM Tris buffer pH 8.0, containing 0.01% Tween-20 and 1∶1000 SYPRO orange dye (Invitrogen). […] Compounds were added at a ratio of 1∶5 from appropriate stock solutions in 10% (v/v) DMSO to comprise either 50 or 250 µM final concentrations. Heat denaturation curves were recorded using a RT-PCR instrument (Mx3005p, Agilent) applying a temperature gradient of 2°C/min. […] 2.5 (ftp://ftp.sgc.ox.ac.uk/pub/biophysics) and PRISM 5.0 (GraphPad Software, Inc.).

Structure (SMILES) | pIC50 [1] | ∆Tm [°C] NAD+ [2] [°C] | ∆Tm [°C] NADH [2] [°C] | ∆Tm [°C] apo [2] [°C]
CCCCCCCCNCCOCCOCCOCCOCCNCCCCCCCC [Compound 31] | 5.40 | 1.1 | 4.8 | -0.1
CCCC(CCCCCCC(=O)c1cn(CCCC(=O)OCC)c2ccccc12)c1ccc(CC(C)C)cc1 (stereo not shown) [Compound 34] | 6.10 | 2.0 | 6.4 | 0.1
COc1ccc(C2C(C(=O)O)c3ccccc3C(=O)N2Cc2ccccc2)cc1 (stereo not shown) [Compound 35] | 5.15 | 1.2 | 2.2 | -0.1
CCN(CC)C(=O)c1sc2nc(-c3cccs3)cc(-c3ccc(Cl)cc3)c2c1N [Compound 36] | 5.00 | 0.9 | 2.9 | -1.5
Cc1cc([N+](=O)[O-])c2c(c1C)[C@@H]1C=CC[C@@H]1C(c1cccc(Cl)c1)N2 (stereo partly shown) [Compound 37] | 5.70 | 1.1 | 5.0 | -2.0
COCCNC(=O)c1cc2oc3ccccc3c2n1C [Compound 45] | 5.80 | 2.7 | 2.9 | -1.9
CC(C)(C)OC(=O)NC(Cc1csc2ccccc12)C(=O)CCc1cc(C(F)(F)F)cc(C(F)(F)F)c1 (stereo not shown) [Compound 50] | 5.20 | 1.9 | 1.7 | -1.9
Cc1ccc(C2=NC(=CN3CCOCC3)C(=O)O2)cc1 [Compound 54] | 5.60 | 6.0 | 3.9 | -1.5
COc1ccc(C(=O)OCC(=O)Nc2c(C)cccc2C)cc1S(=O)(=O)N(C)C [Compound 57] | 5.65 | 9.2 | 1.6 | -0.3
Cc1cc(C(=O)N2CCN(C)CC2)c(C)n1C1CC1 [Compound 59] | 5.65 | 6.9 | 1.7 | -6.1
O=c1c2ccccc2sn1-c1cc(S(=O)(=O)N2CCOCC2)ccc1N1CCCC1 [Compound 71] | 5.60 | 2.4 | -0.4 | -1.8
CN(CCc1ccccn1)CC(=O)Nc1ccc(OC(F)(F)F)cc1 [Compound 78] | 5.60 | 4.0 | -7.6 | -7.4
Cc1cc(=O)oc2cc(OCC(=O)N3CCCc4ccccc43)ccc12 [Compound 79] | 5.95 |  |  | -4.1
CNC(C)C(O)c1ccccc1.O=S(=O)(O)O (stereo not shown) [Compound 84] | 5.85 | 1.5 | -0.1 | 0.7 ± 0.1

Continued, values first:

pIC50 [1] | ∆Tm [°C] NAD+ [2] [°C] | ∆Tm [°C] NADH [2] [°C] | ∆Tm [°C] apo [2] [°C] | Structure (SMILES)
6.55 | 3.9 | 9.6 | -1.4 | CCCC(C(=O)O)C(C)(C)O (stereo not shown) [Compound 32]
6.50 | 7.5 | 4.8 | -0.5 | COc1ccc(NS(=O)(=O)Cc2ccccc2Cl)cc1 [Compound 42]
6.00 | 0.5 | 3.3 | -0.6 | Cc1ccc2cc3c(N)c(C(=O)N4CCC(C)CC4)sc3nc2c1 [Compound 48]
5.95 | 3.7 | 4.7 | 0.1 | Brc1ccc(-c2cc3n(n2)CCc2nc4ccccc4n2-3)cc1 [Compound 55]
6.00 | 6.1 | 0.4 | 0.0 | CC(O)CN(C)C(C)N(CCN(C)C)CCN(C)C (stereo not shown) [Compound 56]
6.20 | 7.6 | 1.5 | -0.2 | Fc1ccccc1CSc1nc2cc(Br)cnc2[nH]1 [Compound 60]
6.20 |  | -0.2 |  | COc1ccc(CNC(=O)CCn2c(-c3cccc(C)c3)n[nH]c2=S)cc1 [Compound 65]
6.45 |  | -0.7 |  | C=CCn1c(=NC(=O)c2cc(C)n(C)n2)sc2cc(Cl)ccc21 [Compound 66]
6.30 | 4.5 | 0.2 |  | Cc1ccc(-c2nnc(S)n2N=CC=Cc2ccccc2[N+](=O)[O-])cc1 [Compound 80]
